Measurements from patent publication US20260191192A1, “ANTIMICROBIAL COMPOSITIONS COMPRISING PELARGONIC ACID” (LANXESS Corporation, priority 2023, published 2026).

How the values were obtained:
[1] = tested on: mixed bacterial inoculum (Table 6); assay: Challenge test (preservative efficacy), mixed bacterial inoculum, full pool (Table 6); format: cell-based
Method: (§1) The preservative activity in representative rinse-off and leave-on formulations was evaluated using a modification of the Personal Care Products Council (PCPC—formerly the Cosmetic, Toiletry and Fragrance Association) protocol (Machtiger, et al. 2001. Determination of the Efficacy of Preservation of Non-Eye Area Water Miscible Cosmetic and Toiletry Formulations: Collaborative Study. J of AOAC International. 84:1, 101-109).
(§2) This evaluation was conducted using a four week, two or three-cycle (i.e., two-cycle for personal care and three-cycle for home care applications) microbial preservative efficacy test (i.e., challenge test) at 25° C. to determine the preservative efficacy of each treatment. Phenoxyethanol, benzyl alcohol and pelargonic acid were tested alone and in various combinations. The pelargonic acid used in the testing was purchased from Sigma-Aldrich. Combinations of phenoxyethanol or benzyl alcohol with benchmark multifunctional booster compounds were also tested for comparison. The preservative and booster ingredients were dosed and mixed thoroughly at room temperature into various formulations, specifically different personal care formulations including a lotion (leave-on, Table 1), a micellar water (rinse-off, Table 2), and a body wash formulation (rinse-off, Table 3) and different home care formulations including a manual dishwashing formulation (Table 4) and a liquid laundry detergent formulation (Table 5). […] Carbomers are a commonly used synthetic rheological modifier in personal care products. The formulation below was made by heating the aqueous (A) and oil (B) phases separately to 75-80° C. The oil phase was then poured into the aqueous phase and mixed by a homogenizer at approximately 45° C. The formed oil-in-water emulsion was cooled to room temperature. Triethanolamine and/or diluted sodium hydroxide was used to adjust the final pH to 6.3 or 6.5 (as indicated in the examples below).
(§3) After dosing, the samples were divided into two separate five gram aliquots. One aliquot was inoculated with 50 μl of a diluted bacterial pool, and the second aliquot was inoculated with 50 μl of a diluted fungal pool as described below. Unpreserved product samples were included as a growth control.
(§4) For personal care products, a mixed bacterial inoculum was prepared using 24-hour cultures of the test bacteria (Table 6) grown in trypticase soy broth (TSB). For home care products, a mixed bacterial inoculum was prepared using 24-hour cultures of the test bacteria either from Table 6 (full pool) or Table 7 (simplified pool) grown in trypticase soy broth (TSB). Details are disclosed in the home care examples below. Equal volumes of the bacterial test strains were combined and diluted one to ten in phosphate buffer to obtain an inoculum of approximately 5×10^7 to 5×10^8 colony forming units per ml (cfu/ml). The test samples were inoculated with 1% of the mixed bacterial inoculum. For both personal care and home care products, a mixed fungal inoculum was prepared using cell suspensions of the yeast Candida albicans ATCC #10231 and the mold Aspergillus brasiliensis ATCC #16404 in phosphate buffer. Equal volumes of the fungal test strains were combined and diluted one to ten with phosphate buffer to obtain an inoculum of approximately 5×10^6 to 5×10^7 cfu/ml. The test samples were inoculated with 1% of the mixed fungal inoculum.
(§5) For personal care products, the samples were subjected to two microbial challenges at time zero and inoculated a second time after seven days. For home care products, the samples were subjected to three microbial challenges at time zero and inoculated a second and third time after seven and fourteen days, respectively. The number of microorganisms added to each sample was determined by a standard Most Probable Number (MPN) determination in Trypticase Soy Broth (TSB) for bacteria and Potato Dextrose Broth (PDB) for fungi. Samples were incubated at 25° C. for the test duration of four weeks.

[2] = ZenBio Cupric Ion Chelating (CIC) Assay; format: physicochemical; details: calculated from a EDTA calibration curve, Pelargonic Acid at 775 μM
Method: The chelation property of the pelargonic acid was measured by using the ZenBio Cupric Ion Chelating (CIC) Assay (Cat #AOX-16). The assay measured the capacity of the pelargonic acid to chelate free cupric ions in solution, thereby inhibiting Cu(II) binding to pyrocatechol violet (PV) for generating a highly colored complex. The absorbance of the Cupric-PV complex was measured at a wavelength of 632 nm. The cupric ion chelating activity was determined as the percent of total PV over the Cu(II) binding. Ethylenediaminetetraacetic acid (EDTA), a well-known chelating agent, was used as a positive control. A series of EDTA with 7 different concentrations from 0 to 1000 μM were prepared and their corresponding absorbance measured and used as the calibration curve (Cupric ion chelating (%) vs. EDTA concentration). Percent cupric ion chelating was determined following the following calculations and Equation 1. The background absorbance value by averaging the absorbance values of the three background wells (no CuSO4 or sample). The average background absorbance was then subtracted from all the sample absorbance values. The maximal absorbance value (Absmax) was determined by averaging the absorbance values of the three wells containing CuSO4, PV and assay buffer. Abstest in Equation 1 is the absorbance of the test sample.
The calibration curve (Cupric ion chelating (%) vs. EDTA concentration) was fit by using a polynomial curve after log 10 transforming the concentrations (R2>0.98).

[3] = tested on: mixed fungal inoculum: Candida albicans ATCC #10231 and Aspergillus brasiliensis ATCC #16404; assay: Challenge test (preservative efficacy), mixed fungal inoculum; format: cell-based
Method: as §1, §2, §3, §4, §5

[4] = tested on: bacteria (Table 6 pool) and fungi; assay: Challenge test, overall result (full bacteria pool and fungi); format: cell-based
Method: as §1, §2, §3, §4, §5

[5] = tested on: bacteria (Table 7 pool) and fungi; assay: Challenge test, overall result (simplified bacteria pool and fungi); format: cell-based; details: dosed 1.0 wt %
Method: as §1, §2, §3, §4, §5

[6] = tested on: mixed bacterial inoculum for home care (Table 7); assay: Challenge test (preservative efficacy), mixed bacterial inoculum, simplified pool (Table 7); format: cell-based, Pseudomonas aeruginosa, Staphylococcus aureus; details: dosed 1.0 wt %
Method: as §1, §2, §3, §4, §5

[7] = body wash, pH 6.5, Example 1E, dosed 0.5 wt %
[8] = micellar water, pH 6.0, bacteria inoculation ~10^7 cfu/ml, Example 1B, dosed 0.5 wt %
[9] = micellar water, pH 6.0, Example 1B, dosed 0.5 wt %
[10] = lotion with carbomer, pH 6.3, Example 1A, dosed 0.5 wt %
[11] = lotion with carbomer, pH 6.3, Example 1A, dosed 1.0 wt %
[12] = lotion with carbomer, pH 6.5, Example 1I, total dosing 0.8 wt %
[13] = liquid laundry detergent, pH 7.5, Example 1H, dosed 1.0 wt %
[14] = micellar water, pH 6.0, Example 1C, dosed 0.3 wt %

For `CCCCC(CC)COCC(O)CO` (stereo not shown) [2-ethyl-hexyl glycerin (EHG), 2-ethyl-hexyl glycerin], the “Bacteria growth rating Result” value [1, 7] was “Fail (growth rating score caused by bacteria of 2 or more at days 21-28 of the testing period)”, the “Bacteria growth rating Result” value [1, 8] was “Fail (growth rating score caused by bacteria of 2 or more at days 21-28 of the testing period)” and the “Calculated EDTA equivalent” value ([2]; listed as Ethylhexylglycerin) was ~0 µM. The “Calculated EDTA equivalent” value ([2]; listed as ethylhexylglycerin) was ~ 0 μM, the “Fungi growth rating Result” value [3, 7] was “Fail (growth rating score caused by fungi of more than 2 at days 21-28 of the testing period)” and the “Fungi growth rating Result” value [3, 9] was “Fail (growth rating score caused by fungi of more than 2 at days 21-28 of the testing period)”. For the same molecule, the “Overall Result” value [4, 7] was “Fail” and the “Overall Result” value [4, 9] was “Fail”.

With `CCCCCCCCC(=O)O` [Pelargonic Acid, nonanoic acid] the “Bacteria growth rating Result” value [1, 7] was “Fail (growth rating score caused by bacteria of 2 or more at days 21-28 of the testing period)”, the “Bacteria growth rating Result” value ([1]; liquid laundry detergent, pH 7.5, full bacteria pool, Example 1H, dosed 1.0 wt %) was “Fail (growth rating score caused by bacteria of 2 or more at days 21-28 of the testing period)” and the “Bacteria growth rating Result” value [1, 10] was “Fail (growth rating score caused by bacteria of 2 or more at days 21-28 of the testing period)”. For the same molecule, the “Bacteria growth rating Result” value [1, 11] was “Fail (growth rating score caused by bacteria of 2 or more at days 21-28 of the testing period)”, the “Bacteria growth rating Result” value ([1]; lotion with carbomer, pH 6.3, Example 1D, dosed 0.8 wt %) was “Fail (growth rating score caused by bacteria of 2 or more at days 21-28 of the testing period)” and the “Bacteria growth rating Result” value [1, 12] was “Fail (growth rating score caused by bacteria of 2 or more at days 21-28 of the testing period)”. The “Bacteria growth rating Result” value [1, 8] was “Fail (growth rating score caused by bacteria of 2 or more at days 21-28 of the testing period)”, the “Bacteria growth rating Result” value ([1]; micellar water, pH 6.0, bacteria inoculation ~10^8 cfu/ml, Example 1C, dosed 0.3 wt %) was “Fail (growth rating score caused by bacteria of 2 or more at days 21-28 of the testing period)” and the “Overall Result” value ([5]; liquid laundry detergent, pH 7.5, Example 1G) was “Fail”. For the same molecule, the “Overall Result” value ([5]; manual dishwashing formulation, pH 5.5, Example 1F) was “Fail”, the “Calculated EDTA equivalent” value [2] was 667 µM and the “Fungi growth rating Result” value [3, 7] was “Pass (growth rating score caused by fungi of 2 or less at days 21-28 of the testing period)”. The “Fungi growth rating Result” value ([3]; liquid laundry detergent, pH 7.5, Example 1G, dosed 1.0 wt %) was “Fail (growth rating score caused by fungi of more than 2 at days 21-28 of the testing period)”, the “Fungi growth rating Result” value [3, 13] was “Fail (growth rating score caused by fungi of more than 2 at days 21-28 of the testing period)” and the “Fungi growth rating Result” value [3, 10] was “Fail (growth rating score caused by fungi of more than 2 at days 21-28 of the testing period)”. For the same molecule, the “Fungi growth rating Result” value [3, 11] was “Fail (growth rating score caused by fungi of more than 2 at days 21-28 of the testing period)”, the “Fungi growth rating Result” value [3, 12] was “Fail (growth rating score caused by fungi of more than 2 at days 21-28 of the testing period)” and the “Fungi growth rating Result” value ([3]; manual dishwashing formulation, pH 5.5, Example 1F, dosed 1.0 wt %) was “Fail (growth rating score caused by fungi of more than 2 at days 21-28 of the testing period)”. The “Fungi growth rating Result” value [3, 9] was “Fail (growth rating score caused by fungi of more than 2 at days 21-28 of the testing period)”, the “Fungi growth rating Result” value [3, 14] was “Fail (growth rating score caused by fungi of more than 2 at days 21-28 of the testing period)” and the “Bacteria growth rating Result” value ([6]; liquid laundry detergent, pH 7.5, simplified bacteria pool, Example 1G) was “Fail (growth rating score caused by bacteria of 2 or more at days 21-28 of the testing period)”. For the same molecule, the “Bacteria growth rating Result” value ([6]; manual dishwashing formulation, pH 5.5, simplified bacteria pool, Example 1F) was “Fail (growth rating score caused by bacteria of 2 or more at days 21-28 of the testing period)”, the “Overall Result” value [4, 7] was “Fail” and the “Overall Result” value [4, 13] was “Fail”. For the same molecule, the “Overall Result” value [4, 10] was “Fail”, the “Overall Result” value [4, 11] was “Fail” and the “Overall Result” value [4, 12] was “Fail”. The “Overall Result” value [4, 9] was “Fail” and the “Overall Result” value [4, 14] was “Fail”.
